“Also recorded” adds a separate entry of the source.
Assays:
[1] = test system: Influenza A virus H1N1 (H1N1A/Weiss/43); experiment: microbe, parasite or virus in culture; type: cell-based; conditions: for EC50: 72 h
[2] = in vitro; conditions: dog
[3] = test system: NA from influenza A virus H1N1; type: biochemical
[4] = test system: influenza A virus H1N1; design: species or system SPF KM mice; conditions: mouse, in vivo

Structure (SMILES)	EC50 ([1]; Influenza A virus, H1N1, MDCK)	CC50 [2]	further results
COC1(C)OC(=O)C(c2ccc(F)cc2)=C1N1CCOCC1 (stereo not drawn) [Compound 57]	14.3 ± 1.7 µM	776 ± 63.2 µM	
COC1=C(c2ccc(Cl)cc2)C(=O)OC1(C)OC (stereo not drawn) [Compound 24, 2-(4-chlorophenyl)-3,4-dimethoxy-4-methylbutenolide]		98.3 ± 3.5 µM	
COC1=C(c2ccccc2)C(=O)OC1(C)OC (stereo not drawn) [Compound 22, 3,4-dimethoxy-4-methyl-2-phenylbutenolide]	26.3 ± 4.4 µM	168 ± 9.7 µM	
NC(=O)c1ncn([C@@H]2O[C@H](CO)[C@@H](O)[C@H]2O)n1 [Ri, Ribavirin, reference compound]	105 ± 51 µM	532 ± 20.3 µM	
COc1ccc(C2=C(N3CCOCC3)C(C)(OC)OC2=O)cc1 (stereo not drawn) [Compound 37, 2-(4-methoxyphenyl)-4-methoxy-4-methyl-3-morpholinobutenolide]	6.7 ± 1.3 µM	536 ± 15.1 µM	antivirus activity against influenza A H1N1 (in words) [1]: dose-dependent; also recorded: better antivirus activity than positive control ribavirin; inhibition rate of NA activity (in words) [3]: increased in a dose-dependent manner; body temperature after virus infection [4]: closed to the control groups; body weight after virus infection [4]: kept increasing; gross lesions in lungs [4]: less lesion; lung histopathology (H&E staining) [4]: less lung inflammation and lesions; viral load / expression of virus gene in lung tissue by qRT-PCR [4]: inhibit the expression of the influenza A virus gene in the lung; also recorded: Lower viral loads; also recorded: lower than that of the model group
COC1=C(c2ccc(Cl)cc2)C(=O)OC1(C)C(O)c1ccc(C)cc1 (stereo not drawn) [Compound 46]		75.2 ± 3.6 µM	
COC1=C(c2ccc(Cl)cc2)C(=O)OC1(C)C(O)c1ccccn1 (stereo not drawn) [Compound 47]		155 ± 6.8 µM	
COC1=C(c2cccc(F)c2)C(=O)OC1(C)OC (stereo not drawn) [Compound 28, 2-(3-fluorophenyl)-3,4-dimethoxy-4-methylbutenolide]	9.4 ± 0.8 µM	19.8 ± 1 µM	
COC1=C(c2ccc(C)cc2)C(=O)OC1(C)OC (stereo not drawn) [Compound 26, 3,4-dimethoxy-4-methyl-2-(p-tolyl) butenolide]		184 ± 5.1 µM	
COC1=C(c2ccc(Br)cc2)C(=O)OC1(C)OC (stereo not drawn) [Compound 25, 2-(4-bromophenyl)-3,4-dimethoxy-4-methylbutenolide]	61.1 ± 5 µM	266 ± 18.4 µM	IC50 ([1]; Influenza A virus, H1N1, MDCK, read-out: IC50 for inhibiting influenza A virus H1N1): 61 µM
COC1=C(c2ccc(Cl)cc2)C(=O)OC1(C)C(O)c1ccc(N2CCOCC2)cc1 (stereo not drawn) [Compound 48]		130 ± 8.1 µM	
COC1=C(c2ccccc2F)C(=O)OC1(C)OC (stereo not drawn) [Compound 29, 2-(2-fluorophenyl)-3,4-dimethoxy-4-methylbutenolide]		204 ± 3.2 µM	
COC1(C)OC(=O)C(c2ccc(Cl)cc2)=C1N1CCOCC1 (stereo not drawn) [Compound 58]	34.7 ± 5.9 µM	209 ± 14.1 µM	
COC1=C(c2ccc(F)c(F)c2)C(=O)OC1(C)OC (stereo not drawn) [Compound 30, 2-(3,4-difluorophenyl)-3,4-dimethoxy-4-methylbutenolide]	33.4 ± 1 µM	109 ± 7.6 µM	
CCOC(=O)C1=C[C@@H](OC(CC)CC)[C@H](NC(C)=O)[C@@H](N)C1 [Os, Oseltamivir, reference compound]	0.28 ± 0.05 µM	> 800 µM	
COC1(C)OC(=O)C(c2cccc(F)c2)=C1N1CCOCC1 (stereo not drawn) [Compound 60]		147 ± 8.1 µM	

— paper PMC6705239 (ACS Omega, 2019)
